# Source: patent US5942248A, “Pharmaceutical composition containing a low detergent effect bile salt and an active compound that undergoes biliary excretion and/or enterohepatic recycling” (priority 1992, dated 1999)
# Where two headings read alike, the source gives them in different places.
# Legend:
# [1] = pH 7.3 buffer, 37° C.; cited from earlier work
# rats = conditions: induced by more detergent dihydroxy and trihydroxy bile acids; cited from earlier work
# patients = conditions: chronic active hepatitis, primary biliary cirrhosis, cystic fibrosis; cited from earlier work
# [2] = tested on: heart transplant patients; conditions: cyclosporine-induced cholestasis; cited from earlier work
# [3] = tested on: isolated perfused rat liver; conditions: cited from earlier work
# [4] = tested on: mono-layer cultures of isolated rat hepatocytes; conditions: cited from earlier work
# [5] = tested on: isolated human hepatocytes; conditions: cited from earlier work
# [6] = tested on: subjects receiving gallstone dissolution therapy; conditions: rather than chenodeoxycholate; cited from earlier work
# [7] = tested on: isolated perfused rat liver; conditions: cited from earlier work; remark: listed apart in the source
# human erythrocytes = conditions: cited from earlier work
# [8] = aqueous solution; cited from earlier work
# [9] = cited from earlier work
# [10] = Stability of indomethacin in stored plasma samples; format: physicochemical; conditions: -20° C.
# Description: The medication was taken with approx. 250 ml of boiled tap water. The zero time blood samples were taken within a 5 min period preceding the administration of the medication. Subsequent samples were taken at 0.5, 1.0, 1.5, 2.0, 2.5, 3.0, 4.0, 6.0, 8.0, 10.0 and 12.0 h. Blood samples were collected into lithium heparin tubes, gently mixed and centrifuged at 2.0×10^3 g.min within 15min of collection. Separated plasma was transferred into a clean tube and stored at -20° C. After a one week interval, the subjects received the alternative medication and the blood sampling protocol was repeated. Plasma samples were analysed by the HPLC method described by S. K. Cole et al (1992) Int. J. Pharm. 80, 63-73.
# [11] = cited from earlier work; remark: listed apart in the source
# [12] = cited from earlier work; remark: listed apart in the source
# gastrointestinal mucosa = conditions: in vivo; cited from earlier work
compound,measurement,setting,value
CCCCC1C(=O)N(c2ccccc2)N(c2ccccc2)C1=O [phenylbutazone],dissolution in presence of sodium deoxycholate and sodium cholate,[1],enhance the dissolution
"C[C@H](CCC(=O)O)[C@H]1CC[C@H]2[C@@H]3[C@@H](O)C[C@@H]4C[C@H](O)CC[C@]4(C)[C@H]3CC[C@]12C [ursodeoxycholate, Ursodeoxycholate]",biliary excretion of membrane enzymes,rats,reduces the biliary excretion of membrane enzymes
same,measures of hepatic damage,patients,reverse measures of hepatic damage
same,plasma levels of liver enzymes and bilirubin,[2],reverse the elevated plasma levels of liver enzymes and bilirubin
same,reversal of drug-induced cholestasis,[3]; caused by estradiol-17-β-D-glaucaronide and chlorpromazine,reverse drug-induced cholestasis
same,prevention of toxicological effects of more detergent bile acids,[4],prevent the toxicological effects of more detergent bile acids
same,detergent effect in isolated human hepatocytes,[5],lack of detergent effect
same,gastrointestinal side-effects,[6],decreased incidence of gastrointestinal side-effects
same,hepatic enzyme levels in plasma,[6],lower hepatic intracellar enzyme levels
same,detergent effect in isolated perfused rat liver,[7],lack of detergent effect
same,prevention of toxicological effects of more detergent bile acids,human erythrocytes,prevent the toxicological effects of more detergent bile acids
same,CMC,[8],1 to 3 mM
CCC(Cc1c(I)cc(I)c(N)c1I)C(=O)O (centres unmarked) [iopanoic acid],biliary excretion with exogenously added bile acids,[9]; in vivo,increased the biliary excretion
CN(C)CCCN1c2ccccc2Sc2ccc(Cl)cc21 [chlorpromiazine],cholestasis caused,[3],drug-induced cholestasis
C[C@]12CC[C@@H]3c4ccc(O)cc4CC[C@H]3[C@@H]1CC[C@@H]2O[C@@H]1O[C@H](C(=O)O)[C@@H](O)[C@H](O)[C@H]1O [estradiol-17-β-D-glucaronide],cholestasis caused,[3],drug-induced cholestasis
COc1ccc2c(c1)c(CC(=O)O)c(C)n2C(=O)c1ccc(Cl)cc1 [indomethacin],dissolution in presence of sodium deoxycholate and sodium cholate,[1],enhance the dissolution
same,degradation of indomethacin in stored plasma,[10],No degradation of indomethacin was detected
same,absorption rate in vivo with bile acids,[11],did not translate into an enhanced absorption rate in vivo
same,bioavailability with exogenously added bile acids,[11]; in vivo,increased the bioavailability of indomethacin
same,inter-subject variation with exogenously added bile acids,[11]; in vivo,decreasing inter-subject variation
same,biliary clearance / enterohepatic circulation (in words),[12]; in vivo,Extensive clearance of intact indomethacin into the bile
same,plasma clearance,[12]; in vivo,low plasma clearance
same,plasma half-life,[12]; in vivo,short plasma half-life
same,route of excretion,[12]; in vivo,mainly excreted via the hepato-biliaryroute
same,volume distribution,[12]; in vivo,low volume distribution
same,extent of enterohepatic recycling,[12]; man and animals,21-41%
CN1C(C(=O)Nc2ccccn2)=C(O)c2ccccc2S1(=O)=O [piroxicam],gastrointestinal bleeding / lesions,gastrointestinal mucosa,gastrointestinal bleeding
CC1(C)S[C@@H]2[C@H](NC(=O)[C@H](N)c3ccccc3)C(=O)N2[C@H]1C(=O)O [ampicillin],biliary excretion with exogenously added bile acids,[9]; variety of animal species,increased the biliary excretion
CC1(C)C(/C=C/C=C/C=C/C=C2\N(CCCCS(=O)(=O)O)c3ccc4ccccc4c3C2(C)C)=[N+](CCCCS(=O)(=O)[O-])c2ccc3ccccc3c21 [indocyamine green],biliary excretion with exogenously added bile acids,[9]; variety of animal species,increased the biliary excretion
CC(=O)Oc1ccccc1C(=O)O [aspirin],gastrointestinal bleeding / lesions,gastrointestinal mucosa,gastrointestinal bleeding
C=CC1=C(C)/C(=C/c2[nH]c(Cc3[nH]c(/C=C4\NC(=O)C(C)=C4C=C)c(C)c3CCC(=O)O)c(CCC(=O)O)c2C)NC1=O [bilirubin],biliary excretion with exogenously added bile acids,[9]; in vivo,increased the biliary excretion
O=C1OC(c2ccc(O)c(S(=O)(=O)O)c2)(c2ccc(O)c(S(=O)(=O)O)c2)c2c(Br)c(Br)c(Br)c(Br)c21 [bromosulphthalein],biliary excretion with exogenously added bile acids,[9]; variety of animal species,increased the biliary excretion
